Laboratory results published in patent EP0408806A1, “Antihypercholesterolemic agents” (MERCK & CO. INC., priority 1989, dated 1991).

Molecular target: T1, HMG-CoA reductase (Rattus norvegicus, UniProt P51639)
T1 sequence (P51639 1-887): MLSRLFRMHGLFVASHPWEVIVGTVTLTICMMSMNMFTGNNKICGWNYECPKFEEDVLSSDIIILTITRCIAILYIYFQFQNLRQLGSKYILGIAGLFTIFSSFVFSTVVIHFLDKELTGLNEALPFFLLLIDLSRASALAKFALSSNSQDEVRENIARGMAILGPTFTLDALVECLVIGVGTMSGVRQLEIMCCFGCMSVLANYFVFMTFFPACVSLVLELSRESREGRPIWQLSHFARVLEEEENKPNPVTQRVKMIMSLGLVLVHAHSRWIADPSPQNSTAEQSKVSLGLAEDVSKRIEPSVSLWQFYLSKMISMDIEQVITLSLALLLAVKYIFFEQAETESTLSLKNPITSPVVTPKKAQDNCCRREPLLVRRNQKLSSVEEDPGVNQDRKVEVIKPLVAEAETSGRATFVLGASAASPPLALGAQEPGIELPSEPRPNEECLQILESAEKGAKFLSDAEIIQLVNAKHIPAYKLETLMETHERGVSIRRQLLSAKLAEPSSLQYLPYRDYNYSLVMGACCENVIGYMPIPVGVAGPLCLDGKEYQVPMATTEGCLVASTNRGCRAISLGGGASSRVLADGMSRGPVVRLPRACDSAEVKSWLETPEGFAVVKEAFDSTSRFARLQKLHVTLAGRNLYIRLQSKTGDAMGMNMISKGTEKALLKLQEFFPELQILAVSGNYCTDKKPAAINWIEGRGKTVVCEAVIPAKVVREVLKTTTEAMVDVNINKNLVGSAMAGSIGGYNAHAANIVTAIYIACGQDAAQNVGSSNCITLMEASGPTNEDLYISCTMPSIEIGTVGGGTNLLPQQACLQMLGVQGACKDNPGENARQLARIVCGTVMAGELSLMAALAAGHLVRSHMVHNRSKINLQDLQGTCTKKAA
Experiment: intrinsic HMG-CoA reductase inhibition, in vitro protocol published in J. Med. Chem., 28, p. 347-358 (1985)
Format: biochemical
Conditions: read-out: IC₅₀ value (converted)
Method: The intrinsic HMG-CoA reductase inhibition activity of the claimed compounds is measured in the in vitro protocol published in J. Med. Chem., 28, p. 347-358 (1985).

Q: Which IC50 does the source give for `CCC(C)(C)C(=O)OC1CC(C)=CC2=CC(=O)C(C)C(CCC3CC(O)CC(=O)O3)C21` [6(R)-[2-[8(S)-(2,2-dimethylbutyryloxy)-2(S),6-dimethyl-3-oxo-1,2,7,8,8a(R)-pentahydronaphthyl-1(S)]ethyl]-4(R)-hydroxy-3,4,5,6-tetrahydro-2H-pyran-2-one] here?
A: The IC50 was 4.62 nM.
